{"source": "patent US5633345A", "about": "“Cyclic peptides” (priority 1992, dated 1997)", "note": "Starred links: 1 amine or outer side, 2 acyl side, 3 side chain; linkers in the order of their positions; H or OH if unused. Non-standard residues stand in square brackets, D forms with d. Residues, ends and D or L forms follow the SMILES beside them. *: point of attachment. X7 = CC(=O)OC(c1ccccc1)[C@@H](C(=O)[*:2])N(C)[*:1]; NMePhe(2-F) = CN[C@@H](Cc1ccccc1F)C(=O)O; X1 = CC[C@@H](C)[C@@H](O[*:1])C(=O)[*:2]; NMeVal(β-OH) = CN[C@H](C(=O)O)C(C)(C)O; X4 = CC(O)[C@@H](C)C(O[*:1])C(=O)[*:2]; X6 = CC(CO)[C@@H](C(=O)[*:2])N(C)[*:1]; NMeaIle = CC[C@@H](C)[C@H](NC)C(=O)O; Phe(2-F) = N[C@@H](Cc1ccccc1F)C(=O)O; X5 = CN([C@@H](CCCO)C(=O)[*:2])[*:1]; NMeY = CN[C@@H](Cc1ccc(O)cc1)C(=O)O; NMeF = CN[C@@H](Cc1ccccc1)C(=O)O; aIle = CC[C@@H](C)[C@H](N)C(=O)O; Nva(5-OH) = N[C@@H](CCCO)C(=O)O; NMeL = CN[C@@H](CC(C)C)C(=O)O; NMeV = CN[C@H](C(=O)O)C(C)C; Thz = O=C(O)[C@@H]1CSCN1; Nva = CCC[C@H](N)C(=O)O; OBn = c1ccc(CO*)cc1; Sar = CNCC(=O)O"}
{"conditions": "mouse, in vivo, ip, 100 mg/kg"}
{"compound": "CC[C@@H](C)[C@H]1OC(=O)[C@H](C(C)(C)O)N(C)C(=O)[C@H](CC(C)C)NC(=O)[C@H](C(C)C)N(C)C(=O)[C@H](C(C)C)NC(=O)[C@@H]2CCCN2C(=O)[C@H](Cc2ccccc2)N(C)C(=O)[C@H](Cc2ccccc2)NC(=O)[C@H](C(C)C)N(C)C1=O", "note": "[Compound 3] (HELM PEPTIDE1{F.[meF].P.V.[meV].L.[CN([C@H](C(=O)[*:2])C(C)(C)O)[*:1]].[CC[C@@H](C)[C@@H](O[*:1])C(=O)[*:2]].[meV]}$PEPTIDE1,PEPTIDE1,1:R1-9:R2$$$V2.0)", "toxicity signs": "no toxicity signs"}
{"compound": "CC[C@@H](C)[C@@H]1NC(=O)[C@@H]2CCCN2C(=O)[C@H](Cc2ccccc2)N(C)C(=O)[C@H](Cc2ccccc2)NC(=O)[C@H](C(C)C)N(C)C(=O)[C@@H]([C@H](C)CC)OC(=O)[C@H](C(C)CO)N(C)C(=O)[C@H](CC(C)C)NC(=O)[C@H](C(C)C)N(C)C1=O", "note": "(stereo partly shown) [Compound 4] (cyclo(F[NMeF]P[aIle][NMeV]L[X6][X1][NMeV]))", "toxicity signs": "no toxicity signs"}
{"compound": "CC[C@@H](C)[C@H]1OC(=O)[C@H](C(C)(C)O)N(C)C(=O)[C@H](CC(C)C)NC(=O)[C@H](C(C)C)N(C)C(=O)[C@H](CC(C)C)NC(=O)[C@@H]2CCCN2C(=O)[C@H](Cc2ccccc2)N(C)C(=O)[C@H](Cc2ccccc2)NC(=O)[C@H](C(C)C)N(C)C1=O", "note": "[Compound 6] (HELM PEPTIDE1{F.[meF].P.L.[meV].L.[CN([C@H](C(=O)[*:2])C(C)(C)O)[*:1]].[CC[C@@H](C)[C@@H](O[*:1])C(=O)[*:2]].[meV]}$PEPTIDE1,PEPTIDE1,1:R1-9:R2$$$V2.0)", "toxicity signs": "no toxicity signs"}
{"compound": "CC[C@@H](C)[C@@H]1NC(=O)[C@@H]2CCCN2C(=O)[C@H](Cc2ccccc2F)N(C)C(=O)[C@H](Cc2ccccc2F)NC(=O)[C@H](C(C)C)N(C)C(=O)[C@@H]([C@H](C)CC)OC(=O)[C@H](C(C)(C)O)N(C)C(=O)[C@H](CC(C)C)NC(=O)[C@H](C(C)C)N(C)C1=O", "note": "[Compound 7] (cyclo(L[NMeVal(β-OH)][X1][NMeV][Phe(2-F)][NMePhe(2-F)]P[aIle][NMeV]))", "toxicity signs": "no toxicity signs"}
{"compound": "CC[C@@H](C)[C@@H]1NC(=O)[C@@H]2CCCN2C(=O)[C@H](Cc2ccc(O)cc2)N(C)C(=O)[C@H](Cc2ccccc2)NC(=O)[C@H](C(C)C)N(C)C(=O)[C@@H]([C@H](C)CC)OC(=O)[C@H](C(C)(C)O)N(C)C(=O)[C@H](CC(C)C)NC(=O)[C@H](C(C)C)N(C)C1=O", "note": "[Compound 8] (cyclo(F[NMeY]P[aIle][NMeV]L[NMeVal(β-OH)][X1][NMeV]))", "toxicity signs": "no toxicity signs"}
{"compound": "CC[C@@H](C)[C@@H]1NC(=O)[C@@H]2CSCN2C(=O)[C@H](Cc2ccccc2)N(C)C(=O)[C@H](Cc2ccccc2)NC(=O)[C@H](C(C)C)N(C)C(=O)[C@@H]([C@H](C)CC)OC(=O)[C@H](C(C)(C)O)N(C)C(=O)[C@H](CC(C)C)NC(=O)[C@H](C(C)C)N(C)C1=O", "note": "[Compound 10] (cyclo(F[NMeF][Thz][aIle][NMeV]L[NMeVal(β-OH)][X1][NMeV]))", "toxicity signs": "no toxicity signs"}
{"compound": "CCCC[C@@H]1NC(=O)[C@@H]2CCCN2C(=O)[C@H](Cc2ccccc2)N(C)C(=O)[C@H](Cc2ccccc2)NC(=O)[C@H](C(C)C)N(C)C(=O)[C@@H]([C@H](C)CC)OC(=O)[C@H](C(C)(C)O)N(C)C(=O)[C@H](CC(C)C)NC(=O)[C@H](C(C)C)N(C)C1=O", "note": "[Compound 11] (HELM PEPTIDE1{F.[meF].P.[Nle].[meV].L.[CN([C@H](C(=O)[*:2])C(C)(C)O)[*:1]].[CC[C@@H](C)[C@@H](O[*:1])C(=O)[*:2]].[meV]}$PEPTIDE1,PEPTIDE1,1:R1-9:R2$$$V2.0)", "toxicity signs": "no toxicity signs"}
{"compound": "CCC[C@@H]1NC(=O)[C@H](C(C)C)N(C)C(=O)[C@H]([C@H](C)CC)NC(=O)[C@@H]2CCCN2C(=O)[C@H](Cc2ccccc2)N(C)C(=O)[C@H](Cc2ccccc2)NC(=O)[C@H](C(C)C)N(C)C(=O)[C@@H]([C@H](C)CC)OC(=O)[C@H](C(C)(C)O)N(C)C1=O", "note": "[Compound 12] (cyclo(F[NMeF]P[aIle][NMeV][Nva][NMeVal(β-OH)][X1][NMeV]))", "toxicity signs": "no toxicity signs"}
{"compound": "CC[C@@H](C)[C@@H]1NC(=O)[C@@H]2CCCN2C(=O)CN(C)C(=O)[C@H](Cc2ccccc2)NC(=O)[C@H](C(C)C)N(C)C(=O)[C@@H]([C@H](C)CC)OC(=O)[C@H](C(C)(C)O)N(C)C(=O)[C@H](CC(C)C)NC(=O)[C@H](C(C)C)N(C)C1=O", "note": "[Compound 13] (cyclo(F[Sar]P[aIle][NMeV]L[NMeVal(β-OH)][X1][NMeV]))", "toxicity signs": "no toxicity signs"}
{"compound": "CC[C@@H](C)[C@@H]1NC(=O)[C@@H]2CCCN2C(=O)[C@H](C(OC(C)=O)c2ccccc2)N(C)C(=O)[C@H](Cc2ccccc2)NC(=O)[C@H](C(C)C)N(C)C(=O)[C@@H]([C@H](C)CC)OC(=O)[C@H](C(C)(C)O)N(C)C(=O)[C@H](CC(C)C)NC(=O)[C@H](C(C)C)N(C)C1=O", "note": "(stereo partly drawn) [Compound 15] (cyclo(F[X7]P[aIle][NMeV]L[NMeVal(β-OH)][X1][NMeV]))", "toxicity signs": "no toxicity signs"}
{"compound": "CC[C@@H](C)[C@@H]1NC(=O)[C@@H]2CCCN2C(=O)[C@H](Cc2ccccc2)N(C)C(=O)[C@H](Cc2ccccc2)NC(=O)[C@H](C(C)C)N(C)C(=O)C([C@H](C)C(C)O)OC(=O)[C@H](C(C)(C)O)N(C)C(=O)[C@H](CC(C)C)NC(=O)[C@H](C(C)C)N(C)C1=O", "note": "(stereo partly drawn) [Compound 17] (cyclo(F[NMeF]P[aIle][NMeV]L[NMeVal(β-OH)][X4][NMeV]))", "toxicity signs": "no toxicity signs"}
{"compound": "CC[C@@H](C)[C@@H]1NC(=O)[C@@H]2CCCN2C(=O)[C@H](Cc2ccccc2)N(C)C(=O)[C@H](Cc2ccccc2)NC(=O)[C@H](C(C)C)N(C)C(=O)[C@@H]([C@H](C)CC)OC(=O)[C@H]([C@@H](C)O)N(C)C(=O)[C@H](CC(C)C)NC(=O)[C@H](C(C)C)N(C)C1=O", "note": "[Compound 19, Cyclo(L-aIle-L-MeVal-L-Leu-L-MeThr-D-Hmp-L-MeVal-L-Phe-L-MePhe-L-Pro)] (HELM PEPTIDE1{F.[meF].P.[CC[C@@H](C)[C@H](N[*:1])C(=O)[*:2]].[meV].L.[meT].[CC[C@@H](C)[C@@H](O[*:1])C(=O)[*:2]].[meV]}$PEPTIDE1,PEPTIDE1,1:R1-9:R2$$$V2.0)", "toxicity signs": "no toxicity signs"}
{"compound": "CC[C@@H](C)[C@@H]1NC(=O)[C@@H]2CCCN2C(=O)[C@H](Cc2ccccc2)N(C)C(=O)[C@H](Cc2ccccc2)NC(=O)[C@H](C(C)C)N(C)C(=O)[C@@H]([C@H](C)CC)OC(=O)[C@H](C(C)(C)O)N(C)C(=O)[C@H](CC(C)C)NC(=O)[C@H]([C@H](C)CC)N(C)C1=O", "note": "[Compound 22, cyclo (L-aIle-L-MeaIle-L-Leu-L-βHOMeVal-D-Hmp-L-MeVal-L-Phe-L-MePhe-L-Pro)] (cyclo(F[NMeF]P[aIle][NMeaIle]L[NMeVal(β-OH)][X1][NMeV]))", "toxicity signs": "no toxicity signs"}
{"compound": "CC[C@@H](C)[C@@H]1NC(=O)[C@@H]2CCCN2C(=O)[C@H](Cc2ccccc2)N(C)C(=O)[C@H](Cc2ccccc2)NC(=O)[C@H](C(C)C)N(C)C(=O)[C@@H]([C@H](C)CC)OC(=O)[C@H](C(C)(C)O)N(C)C(=O)[C@H](CC(C)C)NC(=O)[C@H](CC(C)C)N(C)C1=O", "note": "[Compound 23, cyclo(L-aIle-L-MeLeu-L-Leu-L-βHOMeVal-D-Hmp-L-MeVal-L-Phe-L-MePhe-L-Pro)] (cyclo(F[NMeF]P[aIle][NMeL]L[NMeVal(β-OH)][X1][NMeV]))", "toxicity signs": "no toxicity signs"}
{"compound": "CC[C@@H](C)[C@@H]1NC(=O)[C@@H]2CCCN2C(=O)[C@H](Cc2ccccc2)N(C)C(=O)[C@H](Cc2ccccc2)NC(=O)[C@H](C(C)C)N(C)C(=O)[C@@H]([C@H](C)CC)OC(=O)[C@H](C(C)(C)O)N(C)C(=O)[C@H]([C@H](C)CC)NC(=O)[C@H](C(C)C)N(C)C1=O", "note": "[Compound 24, cyclo(L-aIle-L-MeVal-L-aIle-L-βHOMeVal-D-Hmp-L-MeVal-L-Phe-L-MePhe-L- Pro)] (cyclo(F[NMeF]P[aIle][NMeV][aIle][NMeVal(β-OH)][X1][NMeV]))", "toxicity signs": "no toxicity signs"}
{"compound": "CC(C)C[C@@H]1NC(=O)[C@H](C(C)C)N(C)C(=O)[C@H](C(C)C)NC(=O)[C@@H]2CCCN2C(=O)[C@H](Cc2ccccc2)N(C)C(=O)[C@H](Cc2ccccc2)NC(=O)[C@H](C(C)C)N(C)C(=O)[C@@H](C(C)C)OC(=O)[C@H](C(C)(C)O)N(C)C1=O", "note": "[Compound 25] (HELM PEPTIDE1{F.[meF].P.V.[meV].L.[CN([C@H](C(=O)[*:2])C(C)(C)O)[*:1]].[CC(C)[C@@H](O[*:1])C(=O)[*:2]].[meV]}$PEPTIDE1,PEPTIDE1,1:R1-9:R2$$$V2.0)", "toxicity signs": "no toxicity signs"}
{"compound": "CC[C@@H](C)[C@H]1OC(=O)[C@H](C(C)(C)O)N(C)C(=O)[C@H](CC(C)C)NC(=O)[C@H](C(C)C)N(C)C(=O)[C@H](CCC(=O)OCc2ccccc2)NC(=O)[C@@H]2CCCN2C(=O)[C@H](Cc2ccccc2)N(C)C(=O)[C@H](Cc2ccccc2)NC(=O)[C@H](C(C)C)N(C)C1=O", "note": "[Compound 26, cyclo(L-GluOR-L-MeVal-L-Leu-L-βHOMeVal-D-Hmp-L-MeVal-L-Phe-L-MePhe-L- Pro) (R: Bzl)] (cyclo(E(OBn)[NMeV]L[NMeVal(β-OH)][X1][NMeV]F[NMeF]P))", "toxicity signs": "no toxicity signs"}
{"compound": "CC[C@@H](C)[C@@H]1NC(=O)[C@@H]2CCCN2C(=O)[C@H](Cc2ccccc2)N(C)C(=O)[C@H](Cc2ccccc2)NC(=O)[C@H](C(C)C)N(C)C(=O)[C@@H]([C@H](C)CC)OC(=O)[C@H](C(C)(C)O)N(C)C(=O)[C@H](CC(C)C)NC(=O)[C@H](CCCO)N(C)C1=O", "note": "[Compound 28, cyclo(L-aIle-L-HOMeNva-L-Leu-L-βHOMeVal-D-Hmp-L-MeVal-L-Phe-L-MePhe-L-Pro)] (cyclo(F[NMeF]P[aIle][X5]L[NMeVal(β-OH)][X1][NMeV]))", "toxicity signs": "no toxicity signs"}
{"compound": "CC[C@@H](C)[C@@H]1NC(=O)[C@@H]2CCCN2C(=O)[C@H](Cc2ccccc2)N(C)C(=O)[C@H](Cc2ccccc2)NC(=O)[C@H](C(C)C)N(C)C(=O)[C@@H]([C@H](C)CC)OC(=O)[C@H](C(C)(C)O)N(C)C(=O)[C@H](CCCO)NC(=O)[C@H](C(C)C)N(C)C1=O", "note": "[Compound 39, cyclo(L-aIle-L-MeVal-L-HONva-L-βHOMeVal-D-Hmp-L-MeVal-L-Phe-L-MePhe-L-Pro)] (cyclo(F[NMeF]P[aIle][NMeV][Nva(5-OH)][NMeVal(β-OH)][X1][NMeV]))", "toxicity signs": "no toxicity signs"}
